Tests used:
BRAF V600E = biological target: T1, BRAF V600E (Homo sapiens, UniProt P15056, V600E); assay: Cellular assay of target protein degradation, T-Rex 293 cells stably transfected with HA-BRAF_V600E (HA immunofluorescence, high content imaging); assay type: cell-based; conditions: T-Rex 293 HA-BRAF V600E; for DC50: half maximal degradation, read-out: BRaf V600E DC50; for Dmax: maximum degradation observed
T1 construct: expressed in transfected cells
Summary of the method: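 HA immunofluorescence on fixed cells, imaged by high-content reader, measured loss of HA-BRAF V600E in stably transfected T-Rex 293 cells induced with 1 ng/mL doxycycline. Compounds were applied for 24 h at 37 °C (final 0.1 nM–1 μM, 0.1% DMSO); DC50 and Dmax (% of control) were reported.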

BRAF G466V = biological target: T2, BRAF G466V (Homo sapiens, UniProt P15056, G466V); assay: Cellular assay of target protein degradation, T-Rex 293 cells stably transfected with HA-BRAF G466V (HA immunofluorescence, high content imaging); assay type: cell-based; conditions: T-Rex 293 HA-BRAF G466V; for DC50: half maximal degradation, read-out: BRaf G466V DC50; for Dmax: maximum degradation observed
T2 construct: expressed in transfected cells
Summary of the method: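 HA-BRAF G466V levels were read by HA immunofluorescence and high-content imaging after 24 h compound exposure (final 30 nM–3 pM, 0.1% DMSO, 37 °C). Expression was induced with 0.75 ng/mL doxycycline. Outputs: half-maximal degradation concentration (DC50) and maximal degradation (Dmax) relative to control.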

T2 sequence (P15056 whole entry G466V): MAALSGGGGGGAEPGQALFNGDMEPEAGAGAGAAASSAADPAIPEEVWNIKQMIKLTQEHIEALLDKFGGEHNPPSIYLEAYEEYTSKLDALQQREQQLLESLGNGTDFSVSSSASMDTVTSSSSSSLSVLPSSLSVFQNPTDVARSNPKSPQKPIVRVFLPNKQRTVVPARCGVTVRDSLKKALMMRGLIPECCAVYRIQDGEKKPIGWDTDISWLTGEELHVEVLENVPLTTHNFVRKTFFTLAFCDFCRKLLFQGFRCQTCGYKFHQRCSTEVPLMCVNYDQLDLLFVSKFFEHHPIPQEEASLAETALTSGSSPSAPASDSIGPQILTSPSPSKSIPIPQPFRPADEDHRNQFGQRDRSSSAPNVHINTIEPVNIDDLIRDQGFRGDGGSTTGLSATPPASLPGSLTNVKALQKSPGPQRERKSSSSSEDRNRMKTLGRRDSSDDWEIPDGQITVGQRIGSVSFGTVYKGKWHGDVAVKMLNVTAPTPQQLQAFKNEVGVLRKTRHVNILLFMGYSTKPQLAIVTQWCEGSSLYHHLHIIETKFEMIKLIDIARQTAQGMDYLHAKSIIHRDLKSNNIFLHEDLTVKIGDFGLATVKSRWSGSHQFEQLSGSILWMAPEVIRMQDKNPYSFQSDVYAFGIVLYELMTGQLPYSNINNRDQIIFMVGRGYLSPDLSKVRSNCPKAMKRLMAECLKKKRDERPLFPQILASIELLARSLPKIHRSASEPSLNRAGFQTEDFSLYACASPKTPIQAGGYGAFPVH
T1 sequence (P15056 whole entry V600E): as the sequence (P15056 whole entry G466V) above, with V466G, V600E counted along it

SMILES	DC50 (BRAF V600E)	DC50 (BRAF G466V)	Dmax (BRAF G466V)	Dmax (BRAF V600E)
O=C1CCC(N2Cc3cc(N4CC5(CC(CN6CCCc7cc(-c8cnc9[nH]cc(C(=O)c%10c(F)ccc(NS(=O)(=O)N%11CC[C@@H](F)C%11)c%10F)c9c8)ccc76)C5)C4)ccc3C2=O)C(=O)N1 (stereo partly drawn) [Compound 47, (3R)-N-(3-{5-[1-({2-[2-(2,6-dioxopiperidin-3-yl)-1-oxo-2,3-dihydro-1H-isoindol-5-yl]-2-azaspiro[3.3]heptan-6-yl}methyl)-1,2,3,4-tetrahydroquinolin-6-yl]-1H-pyrrolo[2,3-b]pyridine-3-carbonyl}-2,4-difluorophenyl)-3-fluoropyrrolidine-1-sulfonamide]	> 500 nM	10 to 30 nM	35 to 70%	
O=C1CC[C@@H](NC(=O)c2ccc(C3CCN(CC4CCN(c5ccc(-c6cnc7[nH]cc(C(=O)c8c(F)ccc(NS(=O)(=O)N9CC[C@@H](F)C9)c8F)c7c6)cc5)CC4)CC3)cc2F)C(=O)N1 [Compound 48, 4-(1-{[1-(4-{3-[2,6-difluoro-3-({[(3R)-3-fluoropyrrolidin-1-yl]sulfonyl}amino)benzoyl]-1H-pyrrolo[2,3-b]pyridin-5-yl}phenyl)piperidin-4-yl]methyl}piperidin-4-yl)-N-[(3R)-2,6-dioxopiperidin-3-yl]-2-fluorobenzamide]	50 to 500 nM	1 to 10 nM	< 35%	< 35%
C[C@@]12CN(CC3CCN(c4ccc5c(c4)CN([C@H]4CCC(=O)NC4=O)C5=O)CC3)C[C@@H]1CN(c1ccc(-c3cnc4[nH]cc(C(=O)c5c(F)ccc(NS(=O)(=O)N6CC[C@@H](F)C6)c5F)c4c3)cc1)C2 [Compound 51, (3R)-N-[3-(5-{4-[(3aS,6aR)-5-[(1-{2-[(3S)-2,6-dioxopiperidin-3-yl]-1-oxo-2,3-dihydro-1H-isoindol-5-yl}piperidin-4-yl)methyl]-3a-methyl-octahydropyrrolo[3,4-c]pyrrol-2-yl]phenyl}-1H-pyrrolo[2,3-b]pyridine-3-carbonyl)-2,4-difluorophenyl]-3-fluoropyrrolidine-1-sulfonamide]	50 to 500 nM	1 to 10 nM	35 to 70%	35 to 70%
C[C@@]12CN(CC3CCN(c4ccc5c(c4)CN([C@@H]4CCC(=O)NC4=O)C5=O)CC3)C[C@@H]1CN(c1ccc(-c3cnc4[nH]cc(C(=O)c5c(F)ccc(NS(=O)(=O)N6CC[C@@H](F)C6)c5F)c4c3)cc1)C2 [Compound 52, (3R)-N-[3-(5-{4-[(3aS,6aR)-5-[(1-{2-[(3R)-2,6-dioxopiperidin-3-yl]-1-oxo-2,3-dihydro-1H-isoindol-5-yl}piperidin-4-yl)methyl]-3a-methyl-octahydropyrrolo[3,4-c]pyrrol-2-yl]phenyl}-1H-pyrrolo[2,3-b]pyridine-3-carbonyl)-2,4-difluorophenyl]-3-fluoropyrrolidine-1-sulfonamide]	50 to 500 nM	1 to 10 nM	35 to 70%	< 35%
O=C1CC[C@@H](N2Cc3cc(N4CCC(CN5CC6(C5)CN(c5ccc(-c7cnc8[nH]cc(C(=O)c9c(F)ccc(NS(=O)(=O)N%10CC[C@@H](F)C%10)c9F)c8c7)cc5)C6)CC4)c(F)cc3C2=O)C(=O)N1 [Compound 56, (3R)-N-{3-[5-(4-{6-[(1-{2-[(3R)-2,6-dioxopiperidin-3-yl]-6-fluoro-1-oxo-2,3-dihydro-1H-isoindol-5-yl}piperidin-4-yl)methyl]-2,6-diazaspiro[3.3]heptan-2-yl}phenyl)-1H-pyrrolo[2,3-b]pyridine-3-carbonyl]-2,4-difluorophenyl}-3-fluoropyrrolidine-1-sulfonamide]	5 to 50 nM	< 1 nM	> 70%	35 to 70%
COc1cc(N2CC3(CC(CN4CCN(c5ccc(-c6cnc7[nH]cc(C(=O)c8c(F)ccc(NS(=O)(=O)N9CC[C@@H](F)C9)c8F)c7c6)cc5)CC4)C3)C2)cc2c1C(=O)N(C1CCC(=O)NC1=O)C2 (stereo partly drawn) [Compound 59, (3R)-N-[3-(5-{4-[4-({2-[2-(2,6-dioxopiperidin-3-yl)-7-methoxy-1-oxo-2,3-dihydro-1H-isoindol-5-yl]-2-azaspiro[3.3]heptan-6-yl}methyl)piperazin-1-yl]phenyl}-1H-pyrrolo[2,3-b]pyridine-3-carbonyl)-2,4-difluorophenyl]-3-fluoropyrrolidine-1-sulfonamide]	5 to 50 nM	1 to 10 nM	> 70%	35 to 70%

Further lines, results first:

DC50 (BRAF V600E)	DC50 (BRAF G466V)	Dmax (BRAF G466V)	Dmax (BRAF V600E)	SMILES
5 to 50 nM	< 1 nM	35 to 70%	35 to 70%	O=C1CCC(N2Cc3cc(C4CCN(CCCc5ccc(-c6cnc7[nH]cc(C(=O)c8c(F)ccc(NS(=O)(=O)N9CC[C@@H](F)C9)c8F)c7c6)cc5)CC4)ccc3C2=O)C(=O)N1 (stereo partly drawn) [Compound 49, (3R)-N-(3-{5-[4-(3-{4-[2-(2,6-dioxopiperidin-3-yl)-1-oxo-2,3-dihydro-1H-isoindol-5-yl]piperidin-1-yl}propyl)phenyl]-1H-pyrrolo[2,3-b]pyridine-3-carbonyl}-2,4-difluorophenyl)-3-fluoropyrrolidine-1-sulfonamide]
5 to 50 nM	< 1 nM	> 70%	35 to 70%	O=C1CCC(N2Cc3cc(N4CC5(CN(CCOc6ccc(-c7cnc8[nH]cc(C(=O)c9c(F)ccc(NS(=O)(=O)N%10CC[C@@H](F)C%10)c9F)c8c7)cc6)C5)C4)ccc3C2=O)C(=O)N1 (stereo partly drawn) [Compound 50, (3R)-N-(3-{5-[4-(2-{6-[2-(2,6-dioxopiperidin-3-yl)-1-oxo-2,3-dihydro-1H-isoindol-5-yl]-2,6-diazaspiro[3.3]heptan-2-yl}ethoxy)phenyl]-1H-pyrrolo[2,3-b]pyridine-3-carbonyl}-2,4-difluorophenyl)-3-fluoropyrrolidine-1-sulfonamide]
5 to 50 nM	< 1 nM	> 70%	35 to 70%	C[C@@H]1CN(c2ccc(-c3cnc4[nH]cc(C(=O)c5c(F)ccc(NS(=O)(=O)N6CC[C@@H](F)C6)c5F)c4c3)cc2)C[C@H](C)N1CC1CN(c2ccc3c(c2)CN(C2CCC(=O)NC2=O)C3=O)C1 (stereo partly drawn) [Compound 53, (3R)-N-[3-(5-{4-[(3R,5S)-4-({1-[2-(2,6-dioxopiperidin-3-yl)-1-oxo-2,3-dihydro-1H-isoindol-5-yl]azetidin-3-yl}methyl)-3,5-dimethylpiperazin-1-yl]phenyl}-1H-pyrrolo[2,3-b]pyridine-3-carbonyl)-2,4-difluorophenyl]-3-fluoropyrrolidine-1-sulfonamide]
5 to 50 nM	< 1 nM	35 to 70%	35 to 70%	COc1cc(C2CCN(CC3CC4(C3)CN(c3ccc(-c5cnc6[nH]cc(C(=O)c7c(F)ccc(NS(=O)(=O)N8CC[C@@H](F)C8)c7F)c6c5)cc3)C4)CC2)cc2c1C(=O)N(C1CCC(=O)NC1=O)C2 (stereo partly drawn) [Compound 54, (3R)-N-[3-(5-{4-[6-({4-[2-(2,6-dioxopiperidin-3-yl)-7-methoxy-1-oxo-2,3-dihydro-1H-isoindol-5-yl]piperidin-1-yl}methyl)-2-azaspiro[3.3]heptan-2-yl]phenyl}-1H-pyrrolo[2,3-b]pyridine-3-carbonyl)-2,4-difluorophenyl]-3-fluoropyrrolidine-1-sulfonamide]
5 to 50 nM	< 1 nM	> 70%	35 to 70%	O=C1CC[C@H](N2Cc3cc(N4CCC(CN5CC6(C5)CN(c5ccc(-c7cnc8[nH]cc(C(=O)c9c(F)ccc(NS(=O)(=O)N%10CC[C@@H](F)C%10)c9F)c8c7)cc5)C6)CC4)c(F)cc3C2=O)C(=O)N1 [Compound 55, (3R)-N-{3-[5-(4-{6-[(1-{2-[(3S)-2,6-dioxopiperidin-3-yl]-6-fluoro-1-oxo-2,3-dihydro-1H-isoindol-5-yl}piperidin-4-yl)methyl]-2,6-diazaspiro[3.3]heptan-2-yl}phenyl)-1H-pyrrolo[2,3-b]pyridine-3-carbonyl]-2,4-difluorophenyl}-3-fluoropyrrolidine-1-sulfonamide]
< 5 nM	< 1 nM	> 70%	35 to 70%	O=C1CC[C@H](N2Cc3cc(N4C[C@H]5CN(CC6CCN(c7ccc(-c8cnc9[nH]cc(C(=O)c%10c(F)ccc(NS(=O)(=O)N%11CC[C@@H](F)C%11)c%10F)c9c8)cc7)CC6)C[C@H]5C4)ccc3C2=O)C(=O)N1 [Compound 57, (3R)-N-(3-{5-[4-(4-{[(3aR,6aS)-5-{2-[(3S)-2,6-dioxopiperidin-3-yl]-1-oxo-2,3-dihydro-1H-isoindol-5-yl}-octahydropyrrolo [3,4-c]pyrrol-2-yl]methyl}piperidin-1-yl)phenyl]-1H-pyrrolo[2,3-b]pyridine-3-carbonyl}-2,4-difluorophenyl)-3-fluoropyrrolidine-1-sulfonamide]
< 5 nM	< 1 nM	35 to 70%	< 35%	O=C1CC[C@@H](N2Cc3cc(N4C[C@H]5CN(CC6CCN(c7ccc(-c8cnc9[nH]cc(C(=O)c%10c(F)ccc(NS(=O)(=O)N%11CC[C@@H](F)C%11)c%10F)c9c8)cc7)CC6)C[C@H]5C4)ccc3C2=O)C(=O)N1 [Compound 58, (3R)-N-(3-{5-[4-(4-{[(3aR,6aS)-5-{2-[(3R)-2,6-dioxopiperidin-3-yl]-1-oxo-2,3-dihydro-1H-isoindol-5-yl}-octahydropyrrolo [3,4-c]pyrrol-2-yl]methyl}piperidin-1-yl)phenyl]-1H-pyrrolo[2,3-b]pyridine-3-carbonyl}-2,4-difluorophenyl)-3-fluoropyrrolidine-1-sulfonamide]
